Earlier results in patent US10633688B2, “Systems and methods for predicting response to minoxidil for the treatment of androgenetic alopecia” (Follea International, priority 2010, dated 2020).

Experiments:
[1] = system: female androgenetic alopecia; conditions: females
[2] = target: T1, SULT1A1 (Homo sapiens, UniProt P50225)
T1 construct: Plucked hairs were collected from the border between bald and non-bald scalp and inspected visually for an intact bulb; from tissue; host or cells: plucked anagen scalp hair (hair bulb / follicle) of AGA patients
T1 sequence (P50225 whole entry): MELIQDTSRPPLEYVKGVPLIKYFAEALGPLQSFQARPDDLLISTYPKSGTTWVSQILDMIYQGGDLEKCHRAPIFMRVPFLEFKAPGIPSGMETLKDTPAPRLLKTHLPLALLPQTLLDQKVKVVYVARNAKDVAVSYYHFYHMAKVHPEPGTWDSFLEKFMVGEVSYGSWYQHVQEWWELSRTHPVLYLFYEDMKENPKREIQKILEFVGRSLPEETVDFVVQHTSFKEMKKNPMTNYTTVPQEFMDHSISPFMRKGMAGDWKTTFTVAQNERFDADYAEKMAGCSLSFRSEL

Row | SMILES | effectiveness in the treatment of female androgenetic alopecia [1] | effect on SULT1A1 sulfation of minoxidil [2]
1 | CC(C)(C)NC(=O)[C@H]1CC[C@H]2[C@@H]3CC[C@H]4NC(=O)C=C[C@]4(C)[C@H]3CC[C@]12C [finasteride] | failed to show the effectiveness | –
2 | O=C(O)c1ccccc1O [salicylic acid] | – | lower SULT1A1 sulfation of minoxidil by competitive inhibition
